Experimental data as given in article PMC11930985 (Nature Communications, 2025).
Converted amounts (≈) assume the structure as drawn.

How the values were obtained:
[1] = test system: monkeys; design: method as in Investigator's Brochure (IB) version 5.0; conditions: 28-day repeat dose; ref Investigator's Brochure (IB) version 5.0; cited from earlier work
[2] = test system: CYP3A4/5; design: method as in Investigator's Brochure (IB) version 5.0; conditions: ref Investigator's Brochure (IB) version 5.0; cited from earlier work
[3] = test system: Yes; design: method as in Investigator's Brochure (IB) version 5.0; conditions: ref Investigator's Brochure (IB) version 5.0; cited from earlier work
[4] = test system: OCI-AML5 xenograft; design: method as in Investigator's Brochure (IB) version 5.0; conditions: ref Investigator's Brochure (IB) version 5.0; cited from earlier work
[5] = test system: bone marrow cells from patients with primary AML; design: method as in Ben-Batalla et al., 2013; conditions: ref Ben-Batalla et al., 2013; cited from earlier work
[6] = test system: human lymphocytes; design: method as in Investigator's Brochure (IB) version 5.0; conditions: ref Investigator's Brochure (IB) version 5.0; cited from earlier work
[7] = target: Ret; design: method as in Investigator's Brochure (IB) version 5.0; conditions: ref Investigator's Brochure (IB) version 5.0; cited from earlier work
[8] = test system: pS6 S235/S236; assay: CyTOF maximal inhibition in Undefined/Immature Myeloid cells: pS6; format: in vivo; conditions: Homo sapiens, N = 12 patients, read-out: EC50 (± standard error), pS6 S235/S236 inhibition
From the text: Pharmacodynamic endpoints included the measurement of inhibition of pAXL, pERK, pAKT, pS6 and pSTAT1/3/5 in blast cells (defined as cells with abnormal surface marker expression as compared to healthy donor peripheral blood mononuclear cells and undefined/immature myeloid cells (defined as cells carrying myeloid markers but lacking distinguishing terminal differentiation markers). Mass cytometry time of flight (CyTOF) was used for the determination of the pharmacodynamic markers using a previously validated and tested panel of mass-tagged antibodies[39],[40]. The antibodies in the panel are listed in Supplementary Table 5. Briefly, fixed leukocytes from peripheral blood were barcoded using a 20-plex metal barcoding kit (Standard Biotools, Cell-ID 201060) according to manufacturer’s protocol, allowing all the samples from a single individual to be stained and analysed in parallel. All analysis runs included barcoded peripheral blood mononuclear cells (PBMCs) from at least one healthy donor and an identical barcoded reference sample (mix of PBMCs from six healthy donors). […]
For each population, marker, and sample, the 95th percentile of the non-transformed expression values was calculated. […]

[9] = test system: AML/MDS patients; assay: Dose-limiting toxicity assessment, 3+3 dose escalation; format: in vivo
From the text: The study consisted of a phase 1b dose escalation, followed by a phase 2a cohort expansion. […] Due to the introduction of an enhanced formulation, the study was extended with a second dose escalation cohort following a 3 + 3 study design, also with expansion at the selected dose (Fig. 1).
The conventional 3 + 3 study design gives a 71% chance of escalation if the true but unknown rate of DLT is 20%, and <50% chance of escalation if the true but unknown rate of DLT is >30%. […] Based on a one-sided, within-group test of proportions comparing an anticipated ORR of >20% against the null hypothesis rate of 5%, with power 80% and type I error 0.2 (suitable as evidence of a trend worthy of future study), a sample size of up to 14 evaluable patients was selected for B2. On the same basis, for B5 an initial sample size of 14 relapsed and 14 refractory AML patients was planned. However, upon regulatory review by the FDA, this was reduced to 20 R/R AML patients with 4 refractory AML patients. For this early-stage study, the efficacy analyses are secondary endpoints, and no account was taken of the multiplicity inherent in the assessment of several, presumably non-independent criteria, for ORR.

[10] = test system: Ret; design: method as in Investigator's Brochure (IB) version 5.0; conditions: ref Investigator's Brochure (IB) version 5.0; cited from earlier work; remark: listed apart in the source

For Nc1nc(Nc2ccc3c(c2)CC[C@@H](N2CCCC2)CC3)nn1-c1cc2c(nn1)-c1ccccc1CCC2 [Bemcentinib], the Target organs [1] is given as “liver, reticuloendothelial system and haematopoietic system”, the “Substrate and time-dependent inhibition of CYP3A4/5 activity” value [2] is given as “modest” and the IC50 [3] is given as 0.043 µM. The Tumor growth [4] was “inhibited”, the “Patients whose bone marrow cells were sensitive to BGB324” value [5] was 7 out of 11 and the “Sensitization of primary patient AML cells to Ara-C” value [5] was “sensitizes”. The “In vitro mammalian cell cytogenetic study result” value [6] was “negative”, the Kd [7] was 0.073 µM and the EC50 [8] was 0.1187 ± 0.0011 µg/mL (≈ 0.234 µM). For the same compound, the “Formal criteria for a maximum tolerated dose” value ([9]; DE cohort) was “not met”, the “Recommended phase 2 dose (loading/maintenance)” value ([9]; human, in vivo, 3 weeks) was 400/200 and the “Dose-limiting toxicities (DLT) observed” value ([9]; in vivo) was “Three”. For the same compound, the IC50 [10] was 0.038 µM.
